Here are results for 4 compounds from publication PMC7845594, “Novel Immune Modulators Enhance Caenorhabditis elegans Resistance to Multiple Pathogens” (mSphere, 2021).

Entries after “also recorded” stand apart in the source; their conditions may differ.

One data set deals with ESRE network. The experiment in a line: hsp-16.1p::GFP reporter (ESRE activation). The note with it: 50 or 100 μM, no pathogen. Format: in vivo, Caenorhabditis elegans. The text has this: Previous work from our lab has established that the ESRE network plays an important role in the resistance of C. elegans to pyoverdine, the main virulence determinant in liquid killing, and recent evidence has shown that ESRE activation depends on increased reactive oxygen species (ROS) ([23], [38], [39]). To evaluate ESRE activation, worms carrying an hsp-16.1p::GFP reporter (which contains two ESRE motifs and was previously used as an indicator of ESRE activation [[39][–][41]]), were exposed to 50 or 100 μM LK35, LK38, LK56, juglone (positive control), or DMSO. […] ROS level was assessed based on the fluorescence of dihydroethidium (DHE; a ROS-specific dye) using a COPAS FlowSort for flow vermimetry.
Young adult wild-type (A), hsp-4p::GFP (B), hsp-16.1p::GFP (C), or rpt-3::GFP (D) worms were incubated with LK molecules at 50 or 100 µM, DMSO control, or positive controls. For panel A, the worms were treated with compound for 10 h, and then the worms were stained with 4 µM DHE for 1 h before washing and fluorescence measurement. For panels B to D, the worms were treated with compound for 15 h prior to fluorescence measurement. Mean values from at least three biological replicates are shown. *, P < 0.05; **, P < 0.01; ***, P < 0.001 (compared to the solvent control). P values were calculated using Student’s t test. Error bars represent the standard error of the mean. […]

For another data set, the system named is PMK-1/p38 MAPK pathway. The experiment in a line: irg-5p::GFP reporter. Format: in vivo, Caenorhabditis elegans. Particulars: 25, 50, or 100 μM, 24 h, no pathogen. The text has this: To test activation of these pathways, worms carrying GFP-based reporters for the SKN-1/Nrf, PMK-1/p38 MAPK, and DAF-16/FOXO pathways (gst-4p::GFP, irg-5p::GFP, and DAF-16::GFP, respectively) were exposed to each compound in S Basal medium in the absence of the pathogen.
FIG 4 A subset of LK molecules activates reporters for the SKN-1/Nrf2 or PMK-1/p38 MAPK pathways. […] Also present are DMSO and ethanol negative controls for LK compounds and juglone, respectively. The fluorescence intensity was normalized to that of DMSO. (B) Worms carrying an irg-5p::GFP reporter for PMK-1/p38 MAPK activity were incubated at 25, 50, or 100 μM in 1% DMSO. Positive and negative controls consisted of 100 μM RPW-24 in 1% DMSO and 1% DMSO alone. Fluorescence was measured at 24 h. […] P values were calculated using Student’s t test. […]
Worms were washed three times prior to incubation with compounds or DMSO control and diluted in S Basal medium supplemented with E. coli OP50 (OD600 = 0.08) as a food source. The fluorescence fold increase for gst-4p::GPF was taken as the fluorescence of each well and was normalized to the well’s fluorescence at 0 h. irg-5p::GFP, hsp-16.1p::GFP, rpt-6p::GFP, and hsp-4::GFP fluorescence was quantified as the fluorescence/worm area. […] For quantification of nuclear localization of GFP fusion reporters, worms were scored as either localization positive or localization negative. […]

The subject of another data set is C. elegans transcriptome. The experiment in a line: Gene ontology enrichment (DAVID) of up-/downregulated genes. Set-up: species or system Caenorhabditis elegans. The note with it: upregulated genes, 100 µM, 8 h. How it is done: To gain additional insight into the effect of LK molecules on C. elegans, young-adult, wild-type worms were treated with each drug at 100 µM for 8 h in the absence of pathogen. RNA was collected, and transcriptome profiling was performed.
Supplementary file : TABLE S4 Enriched gene ontology categories. […] Redundant gene ontology categories were removed. Download Table S4, XLSX file, 0.02 MB.
Transcriptome profiling was performed on ∼6,000 wild-type, young adult worms incubated with either LK molecules or DMSO for 8 h. RNA isolation was performed using TRIzol extraction, followed by cleanup using RNeasy columns according to the manufacturer’s protocol. Each condition was analyzed in triplicate. Microarray data have been deposited in the GEO database, accession number GSE137516. […] Clustering and generation of the heat map was performed using Cluster 3.0 ([98]) and Treeview ([99]), respectively. Fold change of genes were normalized to average fold change of that gene over all clustered conditions. Genes and conditions were clustered using Euclidean distance and average linkages. […] Microarray data for non-LK molecules were collected from GEO omnibus. WormEXP was used as a secondary method for confirming statistical significance of potential pathways stimulated by each of the LK molecules ([100]). Gene ontologies were generated using DAVID ([101], [102]).

In data set [1] the test system is GroEL and GroES families of bacterial chaperones. Set-up: method as in PMID 27184767, PMID 24418775. Particulars: cited from earlier work.
The next data set concerns RWPE-1 cells. As to the kind of experiment: MTT cell viability assay. Particulars: RWPE-1, 10, 50, or 100 µM, 24 h; cell death greater than 30% = toxicity. For orientation: Tetrazolium assays rely on reduction of a dye to a coloured formazan, in cell work by metabolically active cells.
The next data set relates to CCRF-CEM. Particulars: cited from earlier work.
The next data set relates to MOLT-4. Particulars: cited from earlier work.

Method for RWPE-1 cells: (B) 1.5 × 10^4 RWPE-1 immortalized prostate cells were seeded into each well of a 96-well plate. […] The viability was normalized to a DMSO solvent control. Six wells were used per condition, and an average of three biological replicates is shown.
We also tested compound toxicity in RWPE-1 cells, a well-established, noncancerous, immortalized prostate epithelial cell line available in the lab. Cells were seeded in 96-well plates and allowed to attach before media containing various concentrations of one of the compounds (or DMSO as a control) were added. […] Cell death greater than 30% was considered evidence of toxicity (Fig. 3B).
Then, 100 µl of DMSO was added, and the absorbance at 590 nm measured. MTT assays were performed in triplicate.

With `O=c1cc(CNc2ccc(Br)cc2)nc2sccn12` [LK56], the “ESRE activation (hsp-16.1p::GFP)” value with ESRE network is recorded as “weak activation”. In addition, in the data set with PMK-1/p38 MAPK pathway, the “irg-5p::GFP fluorescence (PMK-1/p38 MAPK activation)” value is on record as “modest increase”. In addition, the “Fold Enrichment, GO term Cytochrome P450” value with C. elegans transcriptome is 12.9.
Turning to `CNC(=O)Oc1c(Br)cc2sc(=O)oc2c1Br` [LK34], the “Inhibition of GroEL and GroES chaperones” value in data set [1] is listed as “potent inhibitor”. In the data set on RWPE-1 cells, the “Toxicity in mammalian cells (MTT viability)” value was “some toxicity”.
Turning to `COC(=O)/C=C/C(=O)Nc1ccccc1` [LK32], the LD50 with CCRF-CEM and in the data set on MOLT-4 was roughly 40 µM throughout. The “Toxicity in mammalian cells (MTT viability)” value in the data set on RWPE-1 cells is listed as “poorly tolerated; also recorded: substantial toxicity”.
For `CN(C)/N=N/c1ccc(-c2cn(Cc3ccccc3)cn2)cc1` [LK38], in the data set on PMK-1/p38 MAPK pathway, the “irg-5p::GFP fluorescence (PMK-1/p38 MAPK activation)” value is “modest increase”. Further, the “Fold Enrichment, GO term Cytochrome P450” value with C. elegans transcriptome came to 12.2.
